# Values of other authors in article PMC12241124 (Frontiers in Microbiology, 2025).
# Details: ref Mygind et al., 2005
substance,measurement,value
plectasin,terminal serum elimination half-life,51 min
